Reference: paper PMC11124387, “A Reliable Multifaceted Solution against Foodborne Viral Infections: The Case of RiLK1 Decapeptide” (Molecules, 2024)
Several values for one entry are separate records, joined by “and”; a condition that tells them apart may be missing. Equal values may be shown once. Read-outs that look alike come from different tables or passages of the source. Where a SMILES comes first, the peptide text is derived from it.

Assays:
[1] = tested on: Hepatitis A virus (HAV) strain HM-175; conditions: cited from earlier work; for LRV (log reduction value) / Viral Titre after Treatment: RT (20 ± 2 °C), mean ± SD, ref [46] (table footnote; text b35 cites [45])
Source text: Table 2 In vitro effect of peptides on HAV. | column: Viral Titre after Treatment (logTCID50/mL ± SD) / RT; LRV (logTCID50/mL ± SD) / RT || In a previous work, the antiviral effects of RiLK1 and RiLK3 were already investigated against hepatitis A virus (HAV) following treatment at room temperature, and the obtained results are reported in Table 2. Briefly, RiLK1 was able to reduce HAV infectivity by more than 1 log in comparison with the untreated virus, displaying a log reduction value (LRV) of 1.4 at 80 μM and 1.1 at 40 μM concentration. […] Therefore, based on these preliminary results, further insights into the virucidal activity ...

[2] = tested on: Hepatitis A virus (HAV) strain HM-175; experiment: Attachment assay, HAV; format: cell-based; conditions: attachment: cells with peptide 80 µM and virus together 1 h at 4 °C, mean ± SD
Experimental: (§1) Four sets of experiments were performed to suppose the effect of RiLK1 and RiLK3 on HAV and MNV-1 [29]. To this aim, 80 µM solutions of the two peptides and HAV and MNV-1 suspensions at a final concentration of 4.7 ± 0.2 log TCID50/mL and 4.5 ± 0.2 log TCID50/mL, respectively, were used in the following experiments: • i) A virus pre-treatment assay to assess the direct interaction between the virus and peptide: the incubation of the peptide with viral suspension for 1 h at room temperature was carried out, followed by its incubation on cells for 1 h at 37 °C. Then, cell monolayers were washed twice with PBS and incubated with 500 µL DMEM/MEM supplemented with 2% of FBS to determine the TCID50/mL. • ii) A cell pre-treatment assay to assess the interaction between the peptide and cells before the viral infection: cell monolayers were preincubated with 100 µL of peptide solution for 1 h at 37 °C, followed by the removal of the peptide, addition to cells of viral suspensions for 1 h at 37 °C, washing step, and culture with 2% FBS DMEM/MEM. • iii) An attachment assay to assess the possible action of the peptide at the stage of virus attachment to cells: cell monolayers were incubated with 100 µL of a suspension containing both the peptide and virus and were incubated for 1 h at 4 °C. Subsequently, the cell monolayers were washed with PBS and incubated for 1 h at 37 °C with a culture medium followed by a washing step and the addition of culture with 2% FBS DMEM/MEM. • iv) An entry assay to assess the possible action of the peptide at the stage of virus internalization into cells: cell monolayers were incubated with 100 µL of the viral suspension for 1 h at 4 °C, followed by the addition of the peptide and incubation for 1 h at 37 °C. Cells were then washed with PBS, and 2% FBS DMEM/MEM was finally added.
(§2) Untreated viral suspensions and peptide solutions, incubated at the same conditions, were used as controls.
(§3) For each treatment, the average and standard deviation of the triplicate analyses were calculated. The virucidal effects of AMPs was assessed by calculating the log reduction value (LRV), i.e., the difference between the infectious titer (log-transformed) of untreated versus treated samples. The statistical significance of differences between treated and untreated samples was determined through one-way analysis of variance (ANOVA) with Bonferroni post hoc comparisons, with a significance level of p < 0.05 (GraphPad Prism v9.5.0, software San Diego, CA, USA).

[3] = tested on: Murine norovirus strain 1 (MNV-1); format: cell-based; conditions: for Viral Titre after Treatment: titration on RAW 264.7 cells; for Viral Titre after Treatment / LRV (log reduction value): mean ± SD, triplicate; for virucidal activity toward MNV-1 (in words): 40 and 80 µM, 4 °C and RT
Source text: (§4) Murine norovirus strain 1 (MNV-1) was used as a surrogate for human norovirus (NoV). The virus was replicated in RAW 264.7 cells (murine macrophage cell line) cultured in Dulbecco’s modified Eagle’s medium (DMEM) supplemented with 1% glutamine, 1% non-essential amino acids, and 2% fetal bovine serum (FBS). Hepatitis A virus (HAV) strain HM-175 was replicated in Frp3 cells (non-human primate cell line derived from fetal kidney) cultured in minimum essential medium (MEM) with Earle’s salts supplemented with 1% glutamine, 2% non-essential amino acids, and 2% FBS. Both viruses were incubated in 5% CO2 at 37 °C. All cell culture media were provided by EuroClone (Milan, Italy). The viral suspensions were prepared by freeze and thaw lysis (1 cycle for MNV-1 and 3 cycles for HAV) of infected monolayers, clarified using low-speed centrifugation (800× g) to remove residual cell debris, then divided in aliquots, and stored at −80 °C until use.
(§5) Solutions 40 µM and 80 µM of each peptide of the panel (RiLK1, RiLK3, RiLK30, 1018-K6, MTP1, and AVP2) were chosen for the virucidal tests. HAV and MNV-1 were assayed at a concentration of 4.7 ± 0.2 log TCID50/mL and 4.5 ± 0.2 log TCID50/mL, respectively. The suspensions containing the peptides and viruses were incubated for 1 h at room temperature (RT,20 ± 2 °C) and 4 °C. These temperatures were chosen to simulate the use of sanitizing solutions in food production/processing environments. Residual viral infectivity was evaluated by titration (TCID50/mL) on Frp3 cells for HAV and on RAW 264.7 cells for MNV-1. Untreated HAV and MNV-1 suspensions and 40 µM and 80 µM AMP solutions, incubated at the same conditions, were used as controls. Each treatment condition was assayed in triplicate. For titration, 100 µL of serial tenfold dilutions of each sample were assayed in 24-well tissue culture plates containing 24–48 h cell monolayers and incubated for 1 h in 5% CO2 at 37 °C. After that, the wells were washed twice with 200 µL of PBS, and 500 µL of DMEM/MEM, supplemented with 2% of FBS, were was added to each well; MNV-1 and HAV incubations were carried for up to 6 days and 14 days, respectively, in 5% CO2 at 37 °C with daily visual inspection to determine the cytopathic effect. The virucidal efficacy of AMPs was estimated by comparing the titers of treated and untreated viral suspensions.
as §3

[4] = tested on: Hepatitis A virus (HAV) strain HM-175; experiment: Virucidal effect of peptides on HAV (residual infectivity by TCID50 titration on Frp3 cells); format: cell-based; conditions: for Viral Titre after Treatment: titration on Frp3 cells; for Viral Titre after Treatment / LRV (log reduction value): mean ± SD, triplicate
Source text: as §4, §5, §3

[5] = tested on: Hepatitis A virus (HAV) strain HM-175; experiment: Cell pre-treatment assay, HAV; format: cell-based; conditions: cell pre-treatment: cells with peptide 80 µM 1 h 37 °C, peptide removed, then virus 1 h 37 °C, mean ± SD
Experimental: as §1, §2, §3

[6] = MNV-1 4.5 ± 0.2 log TCID50/mL + peptide 80 µM, 1 h at 4 °C
[7] = MNV-1 + peptide 40 µM, 1 h at 4 °C
[8] = MNV-1 + peptide 40 µM, 1 h at RT (20 ± 2 °C)
[9] = MNV-1 + peptide 80 µM, 1 h at 4 °C
[10] = MNV-1 + peptide 80 µM, 1 h at RT (20 ± 2 °C)
[11] = maximum reduction, corresponding to the highest LRV
[12] = HAV 4.7 ± 0.2 log TCID50/mL + peptide 80 µM, 1 h at 4 °C
[13] = HAV + peptide 40 µM, 1 h at 4 °C
[14] = HAV + peptide 40 µM, 1 h at 4 °C, untreated minus treated titre
[15] = HAV + peptide 80 µM, 1 h at 4 °C, untreated minus treated titre
[16] = HAV + peptide 40 µM, 1 h at RT (20 ± 2 °C)
[17] = HAV + peptide 80 µM, 1 h at RT (20 ± 2 °C)

Molecule	LRV (log reduction value) ([1]; HAV + peptide 40 µM)	Viral Titre after Treatment ([1]; HAV + peptide 40 µM)	LRV (log reduction value) ([1]; HAV + peptide 80 µM)	Viral Titre after Treatment ([1]; HAV + peptide 80 µM)	LRV [2]	Viral Titre [2]	Viral Titre after Treatment [3, 6]	LRV (log reduction value) [3, 7]	Viral Titre after Treatment [3, 7]	LRV (log reduction value) [3, 8]	Viral Titre after Treatment [3, 8]	LRV (log reduction value) [3, 9]	LRV (log reduction value) [3, 10]	Viral Titre after Treatment [3, 10]	Viral Titre after Treatment [4, 12]	Viral Titre after Treatment [4, 13]	LRV (log reduction value) [4, 14]	LRV (log reduction value) [4, 15]	LRV [5]	Viral Titre [5]	also measured
CC[C@H](C)[C@H](NC(=O)[C@H](CCCNC(=N)N)NC(=O)[C@@H](NC(=O)[C@H](Cc1c[nH]c2ccccc12)NC(=O)[C@H](CCCCN)NC(=O)[C@H](CC(C)C)NC(=O)[C@@H](N)CCCNC(=N)N)C(C)C)C(=O)N[C@@H](Cc1c[nH]c2ccccc12)C(=O)N[C@@H](CCCNC(=N)N)C(=O)N[C@@H](CCCNC(=N)N)C(N)=O [RiLK1] (H-RLKWVRIWRR-NH2; N-terminus assumed)	1.1 logTCID50/mL and 1.1 ± 0.3 *^,a logTCID50/mL	3.6 ± 0.1 *^,a logTCID50/mL	1.4 logTCID50/mL and 1.4 ± 0.4 *^,a logTCID50/mL	3.3 ± 0.2 *^,a logTCID50/mL	1.4 logTCID50/mL and 1.4 ± 0.4 logTCID50/mL	3.3 ± 0.2 logTCID50/mL	4.3 ± 0.2 logTCID50/mL	0.2 ± 0.4 logTCID50/mL	4.3 ± 0.2 logTCID50/mL	1.0 ± 0.4 logTCID50/mL	3.5 ± 0.2 logTCID50/mL	0.2 ± 0.4 logTCID50/mL	1.2 ± 0.4 logTCID50/mL	3.3 ± 0.2 logTCID50/mL	3.6 ± 0.1 logTCID50/mL	3.9 ± 0.2 logTCID50/mL	0.8 ± 0.4 logTCID50/mL	1.1 ± 0.3 logTCID50/mL	0.1 ± 0.3 logTCID50/mL	4.6 ± 0.1 logTCID50/mL	reduction of HAV infectivity in comparison with the untreated virus ([1]; room temperature, ref [45]): more than 1 log; reduction of MNV-1 infectivity [3, 11]: up to 94.1%; decrease of HAV infectious titer [4, 11]: up to 96.7%
KLRWVKIWKK-NH2 [RiLK30, newly designed RiLK1 derivative, Arg residues exchanged with Lys and Lys3 with Arg]	–	–	–	–	–	–	3.9 ± 0.2 logTCID50/mL	0.2 ± 0.5 logTCID50/mL	4.3 ± 0.3 logTCID50/mL	0 ± 0.4 logTCID50/mL	4.5 ± 0.2 logTCID50/mL	0.6 ± 0.4 logTCID50/mL	0 ± 0.3 logTCID50/mL	4.5 ± 0.1 logTCID50/mL	4.3 ± 0.2 logTCID50/mL	4.3 ± 0.2 logTCID50/mL	0.4 ± 0.4 logTCID50/mL	0.4 ± 0.4 logTCID50/mL	–	–	virucidal activity toward MNV-1 (in words) [3]: no virucidal activity; virucidal activity toward HAV (in words) ([4]; 40 and 80 µM, 4 °C and RT): no virucidal activity; LRV (log reduction value) [4, 16]: 0.6 ± 0.4 logTCID50/mL; Viral Titre after Treatment [4, 16]: 4.1 ± 0.2 logTCID50/mL; LRV (log reduction value) [4, 17]: 0.6 ± 0.4 logTCID50/mL; Viral Titre after Treatment [4, 17]: 4.1 ± 0.2 logTCID50/mL
RLRWVRIWRR-NH2 [RiLK3, RiLK1 analog differing by one amino acid (Lys replaced with Arg), C-terminally amidated]	0.3 ± 0.3 ^a logTCID50/mL	4.4 ± 0.1 ^a logTCID50/mL	0.3 ± 0.3 ^a logTCID50/mL	4.4 ± 0.1 ^a logTCID50/mL	1.0 logTCID50/mL and 1.0 ± 0.4 logTCID50/mL	3.7 ± 0.2 logTCID50/mL	4.5 ± 0.2 logTCID50/mL	0 ± 0.3 logTCID50/mL	4.5 ± 0.1 logTCID50/mL	0 ± 0.4 logTCID50/mL	4.5 ± 0.2 logTCID50/mL	0 ± 0.4 logTCID50/mL	0 ± 0.3 logTCID50/mL	4.5 ± 0.1 logTCID50/mL	4.6 ± 0.1 logTCID50/mL	4.6 ± 0.3 logTCID50/mL	0.1 ± 0.2 logTCID50/mL	0.1 ± 0.3 logTCID50/mL	0.9 logTCID50/mL and 0.9 ± 0.4 logTCID50/mL	3.8 ± 0.2 logTCID50/mL	inhibition of HAV infection (in words) ([1]; 40 and 80 µM, room temperature, ref [45]): unable to inhibit HAV infection; virucidal activity toward MNV-1 (in words) [3]: not effective
